Key:
Mtb H37Rv [1] = assay: MIC90 against replicating (R) Mtb H37Rv, with or without clavulanate; format: cell-based, Mycobacterium tuberculosis; settings: Table S4; for Mtb H37Rv R + CLAV (MIC90): clavulanate 4 μg/mL; for Mtb H37Rv R (MIC90): no clavulanate
Mtb H37Rv [2] = assay: MIC90 against nonreplicating (NR, 4-stress) Mtb H37Rv, with or without clavulanate; format: cell-based, Mycobacterium tuberculosis; settings: 4-stress nonreplicating, Table S4; for Mtb H37Rv NR + CLAV (MIC90): clavulanate 4 μg/mL; for Mtb H37Rv NR (MIC90): no clavulanate
E. coli = assay: Microbial spectrum, E. coli; format: cell-based, Escherichia coli; settings: clavulanate 4 μg/mL; Table S4
P. aeruginosa = assay: Microbial spectrum, P. aeruginosa; format: cell-based, Pseudomonas aeruginosa; settings: clavulanate 4 μg/mL; Table S4
S. aureus = assay: Microbial spectrum, S. aureus; format: cell-based, Staphylococcus aureus; settings: clavulanate 4 μg/mL; Table S4
C. albicans = assay: Microbial spectrum, C. albicans; format: cell-based, Candida albicans; settings: no clavulanate; Table S4
[3] = In vitro plasma stability, human plasma; settings: 2 μM, 37 °C, time point 120 min
[4] = In vitro plasma stability, SD rat plasma; settings: 2 μM, 37 °C, time point 120 min
[5] = Stability in simulated gastric fluid (SGF); settings: 10 μM, pH 1.2, room temperature
[6] = In vitro plasma stability, CD-1 mouse plasma; settings: 2 μM, 37 °C, time point 120 min
[7] = In vitro plasma stability, beagle dog plasma; settings: 2 μM, 37 °C, time point 120 min
Caco-2 cells = assay: Caco-2 permeability / efflux transporter substrate; settings: for Caco-2 Mean Papp A to B / Caco-2 Mean Papp B to A: 3 μM, pH 7.4, 120 min; for Caco-2 Efflux Ratio / Caco-2 Mean Recovery % A to B / Caco-2 Mean Recovery % B to A / Caco-2 Rank Papp / Efflux Transporter Substrate: Caco-2
[8] = In vitro plasma stability, cynomolgus monkey plasma; settings: 2 μM, 37 °C, time point 120 min
[9] = Stability in fasted simulated intestinal fluid (FaSSIF); settings: 10 μM, pH 6.5, room temperature
plasma proteins [10] = assay: Plasma protein binding (equilibrium dialysis), human; settings: 2 μM
plasma proteins [11] = assay: Plasma protein binding (equilibrium dialysis), SD rat; settings: 2 μM
plasma proteins [12] = assay: Plasma protein binding (equilibrium dialysis), beagle dog; settings: 2 μM
plasma proteins [13] = assay: Plasma protein binding (equilibrium dialysis), CD-1 mouse; settings: 2 μM

SMILES | Mtb H37Rv R + CLAV (MIC90) (Mtb H37Rv [1]) | Mtb H37Rv R (MIC90) (Mtb H37Rv [1]) | Mtb H37Rv NR + CLAV (MIC90) (Mtb H37Rv [2]) | Mtb H37Rv NR (MIC90) (Mtb H37Rv [2]) | E.coli R + CLAV (MIC90) (E. coli) | P.aeruginosa R + CLAV (MIC90) (P. aeruginosa) | S.aureus R + CLAV (MIC90) (S. aureus) | C.albicans R (MIC90) (C. albicans) | Plasma stability % Remaining, Human [3] | Plasma stability % Remaining, Rat [4] | SGF Stability, % remaining, 1h [5] | SGF Stability, % remaining, 24h [5] | Plasma stability % Remaining, Mouse [6] | Plasma stability % Remaining, Dog [7] | Plasma stability % Remaining, Monkey [8] | FaSSIF Stability, % remaining, 6h [9] | FaSSIF Stability, % remaining, 24h [9] | other results
CC=CC(=O)OCC1=C(C(=O)O)N2C(=O)[C@@H](NC(=O)C(=NO)c3cccs3)[C@H]2SC1 [TBBL-0000058] | 1.1 µM | 8.7 µM | 84.6 µM | 56.8 µM | 41.8 µM | > 100 µM | 0.5 µM | > 100 µM | 35.0% | 60.9% | 94.94% | 57.36% | 67.6% | 81.2% | 22.0% | 114.21% | 66.32% | Caco-2 Mean Papp A to B (Caco-2 cells): < 0.38 10-6 cm/s; Caco-2 Mean Papp B to A (Caco-2 cells): 0.63 10-6 cm/s; Caco-2 Efflux Ratio (Caco-2 cells): > 1.68; Caco-2 Mean Recovery % A to B (Caco-2 cells): < 98.97%; Caco-2 Mean Recovery % B to A (Caco-2 cells): 111.16%; Caco-2 Rank Papp (Caco-2 cells): Low; Efflux Transporter Substrate (Caco-2 cells): Poor or no
NCCSC=CC1=C(C(=O)O)N2C(=O)C(NC(=O)CSc3ccc(Cl)c(Cl)c3)C2SC1 (centres unmarked) [TBBL-0000306] | 0.3 µM | 14.4 µM | > 100 µM | > 100 µM | > 100 µM | > 100 µM | > 100 µM | > 100 µM | 9.5% | 23.0% | 110.19% | 92.52% | 33.8% | 16.6% | 2.0% | 102.19% | 98.38% | –
CCc1nnc(SCC2=C(C(=O)O)N3C(=O)[C@@H](NC(=O)Cc4ccc(C5=NCCCN5)cc4)[C@H]3SC2)s1 [TBBL-0000317] | 1.1 µM | 22.3 µM | > 100 µM | > 100 µM | > 100 µM | > 100 µM | 2.1 µM | > 100 µM | 17.4% | 2.4% | 90.44% | 79.32% | 13.3% | 31.5% | 13.4% | 94.96% | 90.38% | –
CC(=O)OC(C(=O)N[C@@H]1C(=O)N2C(C(=O)O)=C(CSc3cccc[n+]3[O-])CS[C@H]12)c1ccccc1 (some centres unmarked) [TBBL-0000007] | 2.8 µM | 2.3 µM | 2.5 µM | 2.3 µM | 85.1 µM | > 100 µM | 2.4 µM | > 100 µM | – | – | – | – | – | – | – | – | – | –
Cc1nnc(SCC2=C(C(=O)O)N3C(=O)[C@@H](NC(=O)CSc4cc(Cl)ccc4Cl)[C@H]3SC2)s1 [TBBL-0000415] | 1.6 µM | 22.9 µM | > 100 µM | > 100 µM | 22.7 µM | > 100 µM | < 0.1 µM | > 100 µM | – | – | – | – | – | – | – | – | – | –
Cn1c(SCC2=C(C(=O)O)N3C(=O)[C@@H](NC(=O)Cc4ccccc4CN)[C@H]3SC2)nnc(O)c1=O [TBBL-0000460] | 2 µM | 5.4 µM | 85.6 µM | 69.3 µM | 13.4 µM | > 200 µM | 4.6 µM | > 200 µM | 90.4% | 92.4% | 102.88% | 85.68% | 88.8% | 73.7% | 25.6% | 96.2% | 86.61% | Caco-2 Mean Papp A to B (Caco-2 cells): 0.16 10-6 cm/s; Caco-2 Mean Papp B to A (Caco-2 cells): 0.24 10-6 cm/s; Caco-2 Efflux Ratio (Caco-2 cells): 1.52; Caco-2 Mean Recovery % A to B (Caco-2 cells): 97.79%; Caco-2 Mean Recovery % B to A (Caco-2 cells): 106.35%; Caco-2 Rank Papp (Caco-2 cells): Low; Efflux Transporter Substrate (Caco-2 cells): Poor or no; % bound to plasma, Human (plasma proteins [10]): 15.9%; % bound to plasma, SD Rat (plasma proteins [11]): 29.0%; % bound to plasma, Beagle Dog (plasma proteins [12]): 0.0%; % bound to plasma, CD-1 Mouse (plasma proteins [13]): 16.1%
Cc1nnc(SCC2=C(C(=O)O)N3C(=O)[C@@H](NC(=O)Cc4sc(=O)sc4C)[C@H]3SC2)s1 [TBBL-0000330] | 2.8 µM | 27.6 µM | > 100 µM | > 100 µM | > 100 µM | > 100 µM | > 100 µM | > 100 µM | – | – | – | – | – | – | – | – | – | –
CC1=C(C(=O)O)N2C(=O)[C@@H](NC(=O)CSc3ccc(C(=N)N)cc3)[C@H]2SC1 [TBBL-0000328] | 1.4 µM | 64.1 µM | > 100 µM | > 100 µM | > 100 µM | > 100 µM | 12.9 µM | > 100 µM | – | – | – | – | – | – | – | – | – | –
CCn1nnnc1SCC1=C(C(=O)O)N2C(=O)[C@@H](NC(=O)Cc3ccc(C4=NCCN4)cc3)[C@H]2SC1 [TBBL-0000313] | 0.6 µM | 17.3 µM | > 100 µM | > 100 µM | 11.6 µM | > 100 µM | 0.8 µM | > 100 µM | – | – | – | – | – | – | – | – | – | –
O=C(Cc1csc(=O)s1)N[C@@H]1C(=O)N2C(C(=O)O)=C(CSc3nnnn3CCO)CS[C@H]12 [TBBL-0000305] | 2.1 µM | 40.7 µM | > 100 µM | > 100 µM | 7.5 µM | > 100 µM | > 100 µM | > 100 µM | – | – | – | – | – | – | – | – | – | –

Reference: PMC8922279, “Identification of β-Lactams Active against Mycobacterium tuberculosis by a Consortium of Pharmaceutical Companies and Academic Institutions” (ACS Infectious Diseases, 2022)
